Experimental data as given in PMC12410356 (International Journal for Parasitology: Drugs and Drug …, 2025).
“And” between values parts separate entries of the source, which are not always exact repeats. Equal entries are not always repeated.

Assays:
[1] = test system: E. multilocularis metacestode vesicles; assay: Phosphoglucose isomerase (PGI) release assay (damage-marker release) on metacestode vesicles; assay type: cell-based, Echinococcus multilocularis; details: 10 μM; for PGI d5 (relative PGI release): 5 days; for PGI d12 (relative PGI release): 12 days
[2] = test system: E. multilocularis metacestode vesicles; assay: Metacestode vesicle viability assay (ATP, CellTiter-Glo); assay type: cell-based, Echinococcus multilocularis; details: 10 μM, 12 days
Procedure: Viability was assessed after 12 days using the same metacestode vesicles as for the PGI release assay. Triton X-100 was added to each well to a final concentration of 0.1 %. Subsequently the metacestode vesicles were broken mechanically and 50 μL of the supernatant was mixed with 50 μL of CellTiter-Glo® buffer (Promega, Dübendorf, Switzerland). Measurements were performed on a HIDEX Sense microplate reader.

[3] = overview screen, singlets, relative to 0.1 % Triton X-100, DMSO subtracted
[4] = overview screen, singlets, relative to DMSO control
[5] = confirmation screen, triplicates, mean

| SMILES | PGI d5 (relative PGI release) [1, 3] | PGI d12 (relative PGI release) [1, 3] [%] | Viability d12 (relative viability) [2, 4] [%] | PGI d5 (relative PGI release) [1, 5] [%] | PGI d12 (relative PGI release) [1, 5] [%] | Viability d12 (relative viability) [2, 5] [%] |
| --- | --- | --- | --- | --- | --- | --- |
| COc1ccc(COc2cc3oc(=O)c4cc(C(C)O)ccc4c3cc2OC)cc1 (stereo not drawn) [MMV1580799] | -0.002121% | -19.4753 | 164.074 |  |  |  |
| N#Cc1cc([N+](=O)[O-])ccc1Oc1ccccc1Cl [MMV1580800] | 1.0953% | -9.284 | 90.6917 |  |  |  |
| Cc1nc2ccc(Cl)cc2c(-c2ccccc2)c1CC(=O)O [MMV1580801] | 6.482% | 83.9153 | 42.503 |  |  |  |
| Nc1nc(NC2Cc3ccc(F)cc3C2)nc(N2CCCCC2)n1 (stereo not drawn) [MMV1580839] | -3.67% | -6.152 | 110.365 |  |  |  |
| O=C(Nc1ccc(Cl)c(C(F)(F)F)c1)C(CCCl)C(=O)Nc1ccc(Cl)c(C(F)(F)F)c1 [MMV1580840] | 14.7528% | 31.1069 | 11.8566 | -0.17 | 0.36 | 81.80 |
| O=S(=O)(NCB(O)O)c1cc2c(Cl)ccc(Cl)c2s1 [MMV1580841] | -1.0927% | -26.0917 | 81.7436 |  |  |  |
| Clc1cc2nc(C3CCNCC3)n(Cc3ccc(CNCCc4c[nH]cn4)cc3)c2cc1Cl [MMV1580842] | -1.296% | -12.8721 | 102.952 |  |  |  |
| C[Si]1(C)CCN(Cc2cc(-c3ccc(Cl)cc3)n(-c3ccc(Cl)cc3)n2)CC1 [MMV1580843] | -0.6444% | -1.571 | 93.6293 |  |  |  |
| CCc1nc(N)nc(N)c1C#CC(C)c1cc(OC)cc(-c2ccncc2)c1 (stereo not drawn) [MMV1580844] | -2.169% | 33.6502 | 16.6994 | -0.46 | 0.83 | 84.60 |
| CC(=O)N[C@H](C)C(=O)N[C@H](Cc1ccccc1)C(=O)O [MMV1580845] | 0.2541% | -2.372 | 90.1704 |  |  |  |
| COc1ccc(SC(=O)N[C@H](CCC(=O)O)C(=O)O)cc1 [MMV1580846] | -0.9041% | -2.09 | 126.077 |  |  |  |
| CCCCCc1ccc(C(=O)NCCn2cc(CCCCCc3c[nH]c(N)n3)nn2)cc1.Cl [MMV1580847] | 2.795% | 5.023 | 106.136 |  |  |  |
| NC(=O)c1cnc2ccc(S(=O)(=O)c3ccccc3)cc2c1Nc1ccc(O)cc1 [MMV1580848] | -0.9531% | 29.1599 | 51.7682 |  |  |  |
| C=CCc1cc(Cc2cnc(N)nc2N)cc(OC)c1O [MMV1580849] | 24.5% and 24.5063% | -6.332 | 47.2094 |  |  |  |
| Fc1ccc(-n2cc(Cn3c(-c4cccc(F)c4)nc4ccccc43)nn2)cc1 [MMV1580850] | -2.0582% | -24.0097 | 34.9853 |  |  |  |
| CCCCCOc1ccc(/C=C2\Oc3c(ccc(O)c3O)C2=O)c(O)c1 [MMV1580851] | 1.174% | -13.3457 | 137.102 |  |  |  |
| CCCCc1ccc(-c2cc(C(=O)O)cc(-c3ccc(Cl)cc3)n2)cc1 [MMV1580852] | -0.3014% | -1.795 | 95.9921 |  |  |  |
| O=C(Nc1cccc(C2=NCCN2)c1)c1ccc(-c2ccc(C(=O)Nc3cccc(C4=NCCN4)c3)cc2)cc1 [MMV1580853] | 0.237% | 89.997 | 3.841 | -0.08 | 7.37 | 134.53 |
| CCc1cc(O)c(Oc2cccnc2N)cc1F [MMV1580854] | -1.596% | -13.7258 | 45.6729 |  |  |  |
| O=C(O)c1sccc1S(=O)(=O)n1ccc2cc(Br)ccc21 [MMV1580855] | 0.195% | 35.1913 | 69.7674 |  |  |  |
| Cc1ccccc1NC(=O)Nc1cccc([N+](=O)[O-])c1 [MMV1581029] | 1.329% | -16.6439 | 89.4166 |  |  |  |
| CN(C(=O)C1(c2ccc(Cl)cc2)CCC1)c1ccccc1 [MMV1581030] | 0.6829% | -0.7665 | 114.111 |  |  |  |

| SMILES | PGI d5 (relative PGI release) [1, 3] | PGI d12 (relative PGI release) [1, 3] [%] | Viability d12 (relative viability) [2, 4] [%] | PGI d5 (relative PGI release) [1, 5] [%] | PGI d12 (relative PGI release) [1, 5] [%] | Viability d12 (relative viability) [2, 5] [%] |
| --- | --- | --- | --- | --- | --- | --- |
| FC(F)(F)Oc1ccc(Nc2ccc3cccc(Cl)c3n2)cc1 [MMV1581032] | -0.01272% | 18.8065 | 85.6723 |  |  |  |
| N[C@H](CCC(=O)N[C@@H](Cc1c[nH]c2ccccc12)C(=O)O)C(=O)O [MMV1581033] | 0.0006202% | -0.6563 | 121.646 |  |  |  |
| Cc1c(F)cccc1NC(=O)Nc1ccc(Cl)c(S(=O)(=O)[C@H]2CCCNC2)c1O [MMV1581034] | 1.533% | -0.4746 | 88.9358 |  |  |  |
| NC(=O)c1ccc(I)c([N+](=O)[O-])c1 [MMV1581035] | 1.539% | -0.2873 | 321.911 |  |  |  |
| COc1ccc(C[C@@H](C)[C@@H](C)Cc2ccc(OC)c(OC)c2)cc1OC [MMV1581036] | 0.565% | 2.335 | 132.486 |  |  |  |
| O=C1[C@H](CC[C@H](O)c2ccc(F)cc2)[C@@H](c2ccc(O)cc2)N1c1ccc(F)cc1 [MMV1581377] | -0.5323% | 22.6699 | 84.8656 |  |  |  |
| Nc1ccc2oc(=O)ccc2c1I [MMV1581378] | 0.09331% | -19.2105 | 90.9948 |  |  |  |
| O=c1cc(Nc2ccc3ccccc3c2)[nH]c(=O)[nH]1 [MMV1581546] | -1.553% | -12.1764 | 58.2809 |  |  |  |
| CC(C)(C)OC(=O)NCc1ccc(C(=O)N[C@H]2CCOC2=O)cc1 [MMV1581547] | -1.162% | 45.6301 | 30.2259 |  |  |  |
| CC(C)(C)c1cccc(-c2nc3cc(C(=N)N)ccc3[nH]2)c1O [MMV1581548] | -1.312% | -24.7037 | 76.2328 |  |  |  |
| CCc1nc(N)nc(N)c1C#CCc1ccccc1 [MMV1581549] | -0.3014% | -5.576 | 82.8379 |  |  |  |
| OC1O[C@H](CSc2ccc(F)cc2)[C@@H](O)[C@H]1O (stereo partly drawn) [MMV1581550] | -2.303% | -13.5328 | 95.5206 |  |  |  |
| c1ccc(-c2nnc3c4ccccc4c(N4CCNCC4)nn23)cc1 [MMV1581551] | -2.787% | -25.7664 | 63.6248 |  |  |  |
| O=C(Nc1ccccc1)N(Cc1cc(Br)ccc1O)c1ccc(F)cc1 [MMV1581552] | -0.185% | -25.2603 | 81.6601 |  |  |  |
| COc1ccc2c(c1)cc(CNC(=O)c1cc3ccccc3o1)n2CC(=O)O [MMV1581553] | -2.902% | -25.8097 | 73.1434 |  |  |  |
| Nc1cc(N)c2nc(-c3ccccc3)c(Nc3ccc(F)cc3)nc2c1 [MMV1581554] | 4.452% | -9.136 | 104.705 |  |  |  |
| Nc1cccc(-c2nc(N)nc(NC3Cc4ccccc4C3)n2)c1 [MMV1581555] | 2.438% | -5.225 | 66.1297 |  |  |  |
| NC(=O)c1[nH]c2ccc(S(N)(=O)=O)cc2c1-c1ccccc1 [MMV1581556] | 1.2% | 0.8963 | 154.578 |  |  |  |
| O=C(N[C@H](CCS)C(=O)N[C@H](Cc1ccccc1)C(=O)O)c1cc2ccccc2[nH]1 [MMV1581557] | -0.9852% | -10.8141 | 26.3851 |  |  |  |
| Cc1cccc(C)c1C(=O)Nc1nc(-c2ccccn2)cc2ccccc12 [MMV1581558] | 1.519% | 3.408 | 99.5465 |  |  |  |
| CC(C)Cn1c(=O)n(C)c(=O)c2c(-c3cncn3C)n(Cc3cccc4ccccc34)nc21 [MMV1581559] | -0.3605% | 37.1265 | 31.7083 |  |  |  |
